Experiments:
[1] = system: Escherichia coli; experiment: AST with and without RNase, rRNA levels relative to control at 60 or 90 minutes; format: cell-based; conditions: susceptible E. coli isolates, 60 or 90 minutes at 37° C., RNase added to the growth medium
Method: Similar results have been observed for other Gram-negative bacteria such as Kiebsiella pneumoniae, Proteus mirabilis, and Pseudomonas aeruginosa using the same conditions and RNase concentrations as for E. coli.
Susceptible (S) and resistant (R) E. coli isolates were incubated in growth medium with ampicillin for 60 or 90 minutes at 37° C. with (+) and without (−) RNase.
Susceptible (S) and resistant (R) E. coli isolates were incubated in growth medium with cefazolin for 60 or 90 minutes at 37° C. with (+) and without (−) 1 μg/ml RNase.
Susceptible (S) and resistant (R) E. coli isolates were incubated in growth medium with ceftriaxone for 60 or 90 minutes at 37° C. with (+) and without (−) RNase.

[2] = system: K. pneumoniae; experiment: as above; format: cell-based; conditions: susceptible K. pneumoniae isolates, 60 or 90 minutes at 37° C., RNase added to the growth medium
Method: Susceptible (S) and resistant (R) K. pneumoniae isolates were incubated in growth medium with cefepime for 60 or 90 minutes at 37° C. with (+) and without (−) 1 μg/ml RNase.
Susceptible (S) and resistant (R) K. pneumoniae isolates were incubated in growth medium with ceftriaxone for 60 or 90 minutes at 37° C. with (+) and without (−) RNase.

SMILES	rRNA levels relative to control (growth medium without antibiotic) [1]	rRNA levels relative to control (growth medium without antibiotic) [2]
Cc1nnc(SCC2=C(C(=O)O)N3C(=O)[C@@H](NC(=O)Cn4cnnn4)[C@H]3SC2)s1 [cefazolin]	significant reduction in rRNA	
CO/N=C(\C(=O)N[C@@H]1C(=O)N2C(C(=O)[O-])=C(C[N+]3(C)CCCC3)CS[C@H]12)c1csc(N)n1 [cefepime]		significant reduction in rRNA
CO/N=C(\C(=O)N[C@@H]1C(=O)N2C(C(=O)O)=C(CSc3nc(=O)c(=O)[nH]n3C)CS[C@H]12)c1csc(N)n1 [ceftriaxone]	significant reduction in rRNA	significant reduction in rRNA
CC1(C)S[C@@H]2[C@H](NC(=O)[C@H](N)c3ccccc3)C(=O)N2[C@H]1C(=O)O [ampicillin]	significant reduction in rRNA	

Reference: patent US20240068008A1, “RNase for Improved Microbial Detection and Antimicrobial Susceptibility Testing” (MicrobeDX Inc., priority 2016, published 2024)
